Measurements published in ChEMBL document CHEMBL5346964, “Discovery of LNP1892: A Precision Calcimimetic for the Treatment of Secondary Hyperparathyroidism” (J Med Chem, 2023).

Assays:
Rattus norvegicus = test: Acute effect on parathyroid hormone in overnight fasted adenine diet-induced chronic kidney disease Wistar rat model assessed as reduction in plasma PTH level at 10 mg/kg, po measured after 1 hrs of post treatment by sandwich ELISA analysis; assay type: functional; set-up: scale not given: the % may be the effect or the level left
[1] = Drug excretion in rat assessed as drug recovery in feces at 10 mg/kg, po; assay type: ADME, organism-based; settings: faeces, read-out: Drug recovery
[2] = molecular target: Mu-type opioid receptor (Homo sapiens) (UniProt P35372); test: Inhibition of human recombinant MOP receptor at 10 uM relative to control
Chain of Mu-type opioid receptor (Homo sapiens) (P35372 whole entry): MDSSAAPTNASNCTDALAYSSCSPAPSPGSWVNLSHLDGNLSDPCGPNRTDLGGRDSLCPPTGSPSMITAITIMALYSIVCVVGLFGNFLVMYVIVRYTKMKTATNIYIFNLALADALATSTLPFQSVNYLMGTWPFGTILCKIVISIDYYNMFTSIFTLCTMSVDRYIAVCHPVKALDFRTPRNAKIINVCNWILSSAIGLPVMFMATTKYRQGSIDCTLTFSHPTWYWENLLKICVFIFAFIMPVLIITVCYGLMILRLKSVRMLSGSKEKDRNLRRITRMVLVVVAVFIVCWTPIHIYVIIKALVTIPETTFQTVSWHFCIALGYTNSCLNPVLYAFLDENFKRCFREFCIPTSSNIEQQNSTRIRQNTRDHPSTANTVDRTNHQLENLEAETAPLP

[3] = Drug excretion in rat assessed as drug recovery in urine at 1 mg/kg, iv; assay type: ADME, organism-based; settings: read-out: Drug recovery
[4] = Half life in Beagle dog at 1 mg/kg, iv measured upto 24 hrs by LC/MS-MS analysis; assay type: ADME, organism-based, Canis lupus familiaris; settings: in vivo
[5] = Stability in human liver microsomes assessed as parent compound remaining measured after 60 mins in presence of NADPH by LC-MS/MS analysis; assay type: ADME, Microsome; settings: read-out: Stability
[6] = Drug excretion in rat assessed as drug recovery in feces at 1 mg/kg, iv; assay type: ADME, organism-based; settings: faeces, read-out: Drug recovery
[7] = Protein binding in mouse plasma incubated for 16 hrs under shaking condition by rapid equilibrium dialysis based LC-MS/MS method; assay type: ADME, cell-free; settings: read-out: PPB
[8] = Cmax in Beagle dog at 5 mg/kg, po measured upto 24 hrs by LC/MS-MS analysis; assay type: ADME, organism-based, Canis lupus familiaris; set-up: dose 5 mg/kg, time < 24 hrs, route po; settings: in vivo
[9] = Kinetic solubility of compound upto 500 uM at pH 9 measured after 16 hrs under shaking condition by UV-visible method; assay type: physicochemical; settings: buffer, read-out: Kinetic_solubility
[10] = Oral bioavailability in cynomolgus monkey at 5 mg/kg measured upto 24 hrs by LC/MS-MS analysis; assay type: ADME, organism-based, Macaca fascicularis; settings: in vivo
CYP2E1 = CYP2E1 (Homo sapiens, UniProt P05181); test: Inhibition of CYP2E1 in human liver microsomes at 10 uM preincubated for 5 mins followed by NADPH addition by LC-MS/MS analysis relative to control; assay type: ADME, Microsome
Chain of CYP2E1 (P05181 whole entry): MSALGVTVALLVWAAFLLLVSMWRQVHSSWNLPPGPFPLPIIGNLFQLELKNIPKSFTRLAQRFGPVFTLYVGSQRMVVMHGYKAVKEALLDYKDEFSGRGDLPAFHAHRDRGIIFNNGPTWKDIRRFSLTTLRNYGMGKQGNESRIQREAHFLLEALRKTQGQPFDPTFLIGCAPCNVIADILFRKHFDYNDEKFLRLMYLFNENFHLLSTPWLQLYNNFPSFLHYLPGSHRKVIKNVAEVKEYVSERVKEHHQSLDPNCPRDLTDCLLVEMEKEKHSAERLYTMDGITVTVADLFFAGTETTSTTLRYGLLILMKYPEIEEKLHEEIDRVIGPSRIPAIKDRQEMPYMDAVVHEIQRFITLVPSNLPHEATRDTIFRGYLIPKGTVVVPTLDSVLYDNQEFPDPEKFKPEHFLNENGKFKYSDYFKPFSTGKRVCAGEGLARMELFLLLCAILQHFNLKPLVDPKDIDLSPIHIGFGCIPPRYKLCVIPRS

[11] = Kinetic solubility of compound in SIF upto 500 uM measured after 16 hrs under shaking condition by UV-visible method; assay type: physicochemical; settings: read-out: Kinetic_solubility
[12] = Plasma protein binding in human; assay type: ADME; settings: read-out: PPB
[13] = Volume of distribution at steady state in Beagle dog at 1 mg/kg, iv measured upto 24 hrs by LC/MS-MS analysis; assay type: ADME, organism-based, Canis lupus familiaris; settings: in vivo, read-out: Vdss
[14] = Clearance in Sprague-Dawley rat at 10 mg/kg, po administered as solution measured upto 24 hrs by LC-MS/MS analysis; assay type: ADME, organism-based; settings: in vivo
[15] = Apparent permeability across basolateral to apical side in human Caco-2 cells at 5 uM measured after 30 to 120 mins by LC-MS/MS analysis; assay type: ADME, cell-based; settings: time 30-120 min
[16] = Half life in BALB/c mouse at 1 mg/kg, iv measured upto 24 hrs by LC/MS-MS analysis; assay type: ADME, organism-based; settings: in vivo
[17] = Protein binding in human plasma incubated for 16 hrs under shaking condition by rapid equilibrium dialysis based LC-MS/MS method; assay type: ADME, cell-free; settings: read-out: PPB
[18] = molecular target: T1, 5-hydroxytryptamine receptor 1A (Homo sapiens) (UniProt P08908); test: Inhibition of human recombinant 5-HT1A receptor at 10 uM relative to control
T1 sequence (whole entry): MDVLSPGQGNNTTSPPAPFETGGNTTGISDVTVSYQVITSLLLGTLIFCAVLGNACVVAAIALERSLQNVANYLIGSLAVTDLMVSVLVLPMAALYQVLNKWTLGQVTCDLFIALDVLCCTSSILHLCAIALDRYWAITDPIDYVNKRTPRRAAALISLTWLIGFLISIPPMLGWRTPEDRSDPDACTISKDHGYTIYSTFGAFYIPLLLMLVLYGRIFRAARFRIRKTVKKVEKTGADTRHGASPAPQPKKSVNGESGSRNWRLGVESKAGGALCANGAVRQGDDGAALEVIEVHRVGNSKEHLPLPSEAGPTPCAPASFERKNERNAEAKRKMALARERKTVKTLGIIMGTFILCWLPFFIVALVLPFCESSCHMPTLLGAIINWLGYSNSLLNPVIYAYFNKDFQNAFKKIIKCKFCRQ

[19] = AUC(0 to 24 hrs) in Sprague-Dawley rat at 100 mg/kg; assay type: ADME, organism-based; set-up: dose 100 mg/kg; settings: in vivo
[20] = Cmax in cynomolgus monkey at 5 mg/kg, po measured upto 24 hrs by LC/MS-MS analysis; assay type: ADME, organism-based, Macaca fascicularis; set-up: time < 24 hrs, dose 5 mg/kg, route po; settings: in vivo
[21] = Cmax in human at 10 mg/kg, po administered as single dose; assay type: ADME, organism-based; set-up: dose 10 mg/kg, route po; settings: in vivo
hERG [22] = molecular target: T2, hERG (Homo sapiens, UniProt Q12809); test: Inhibition of hERG at 10 uM relative to control; assay type: toxicity
T2 sequence (Q12809 whole entry): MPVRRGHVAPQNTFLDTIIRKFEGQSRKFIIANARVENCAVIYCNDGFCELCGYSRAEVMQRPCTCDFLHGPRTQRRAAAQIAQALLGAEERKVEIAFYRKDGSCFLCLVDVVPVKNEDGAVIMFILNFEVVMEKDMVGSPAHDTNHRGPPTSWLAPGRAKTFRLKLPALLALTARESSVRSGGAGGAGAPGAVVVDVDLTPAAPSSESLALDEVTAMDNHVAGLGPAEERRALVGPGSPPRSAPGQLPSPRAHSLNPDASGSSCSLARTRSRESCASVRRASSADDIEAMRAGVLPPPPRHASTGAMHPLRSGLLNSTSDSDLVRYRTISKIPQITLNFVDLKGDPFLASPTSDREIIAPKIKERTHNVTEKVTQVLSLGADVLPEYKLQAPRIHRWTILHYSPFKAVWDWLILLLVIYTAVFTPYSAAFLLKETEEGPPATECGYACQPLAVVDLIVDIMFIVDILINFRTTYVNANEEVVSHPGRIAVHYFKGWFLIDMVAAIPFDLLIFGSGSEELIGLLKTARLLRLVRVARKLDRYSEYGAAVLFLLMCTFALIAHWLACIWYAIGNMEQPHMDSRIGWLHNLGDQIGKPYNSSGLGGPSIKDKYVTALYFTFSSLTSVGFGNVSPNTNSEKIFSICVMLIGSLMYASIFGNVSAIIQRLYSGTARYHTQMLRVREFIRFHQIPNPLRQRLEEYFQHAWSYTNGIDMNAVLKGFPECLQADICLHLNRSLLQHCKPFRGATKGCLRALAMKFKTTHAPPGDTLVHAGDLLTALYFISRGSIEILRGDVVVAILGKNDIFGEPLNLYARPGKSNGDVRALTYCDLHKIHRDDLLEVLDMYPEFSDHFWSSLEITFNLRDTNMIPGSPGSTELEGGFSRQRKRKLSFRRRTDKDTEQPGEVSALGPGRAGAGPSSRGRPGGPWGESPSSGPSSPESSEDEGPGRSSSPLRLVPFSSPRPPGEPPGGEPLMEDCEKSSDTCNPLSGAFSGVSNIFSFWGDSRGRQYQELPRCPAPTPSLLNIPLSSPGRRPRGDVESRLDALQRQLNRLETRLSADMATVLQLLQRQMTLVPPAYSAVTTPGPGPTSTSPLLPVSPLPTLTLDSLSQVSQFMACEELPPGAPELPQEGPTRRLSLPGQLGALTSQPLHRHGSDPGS

CYP2D6 = CYP2D6 (Homo sapiens, UniProt P10635); test: Inhibition of CYP2D6 in human liver microsomes at 1 uM preincubated for 5 mins followed by NADPH addition by LC-MS/MS analysis relative to control; assay type: ADME, Microsome
Chain of CYP2D6 (P10635 whole entry): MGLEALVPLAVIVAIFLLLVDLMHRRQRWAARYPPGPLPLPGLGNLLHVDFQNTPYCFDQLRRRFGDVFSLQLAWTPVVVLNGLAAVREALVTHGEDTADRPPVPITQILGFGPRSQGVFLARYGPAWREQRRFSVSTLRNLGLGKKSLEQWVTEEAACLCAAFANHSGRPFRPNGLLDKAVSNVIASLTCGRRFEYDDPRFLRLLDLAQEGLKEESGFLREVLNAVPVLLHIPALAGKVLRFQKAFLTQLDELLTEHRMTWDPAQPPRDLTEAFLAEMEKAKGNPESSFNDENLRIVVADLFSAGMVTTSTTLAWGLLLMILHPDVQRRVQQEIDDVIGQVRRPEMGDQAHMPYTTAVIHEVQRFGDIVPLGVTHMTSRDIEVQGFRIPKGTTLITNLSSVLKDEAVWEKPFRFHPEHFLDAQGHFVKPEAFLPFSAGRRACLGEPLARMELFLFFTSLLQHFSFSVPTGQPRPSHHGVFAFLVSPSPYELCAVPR

hERG [23] = molecular target: T2, hERG; test: Inhibition of hERG at 1 uM relative to control; assay type: toxicity
[24] = Efflux ratio of apparent permeability across basolateral to apical over apical to basolateral membrane in human Caco-2 cells at 5 uM measured after 120 mins by LC-MS/MS analysis; assay type: ADME, cell-based
[25] = Effect on parathyroid hormone in overnight fasted Sprague-Dawley rat assessed as reduction in plasma PTH level at 3 mg/kg, po measured after 6 hrs of post treatment by sandwich ELISA analysis; assay type: functional; set-up: scale not given: the % may be the effect or the level left
[26] = Oral bioavailability in Sprague-Dawley rat at 10 mg/kg administered as solution measured upto 24 hrs by LC-MS/MS analysis; assay type: ADME, organism-based; settings: in vivo
[27] = AUC(0 to 24 hrs) in Sprague-Dawley rat at 30 mg/kg; assay type: ADME, organism-based; set-up: dose 30 mg/kg; settings: in vivo
[28] = Microsomal stability in rat liver microsomes assessed as parent compound remaining at 1 uM measured upto 30 mins in presence of NADPH by LC-MS/MS analysis; assay type: ADME, Microsome; settings: read-out: Stability
[29] = Half life in Sprague-Dawley rat at 1 mg/kg, iv measured upto 24 hrs by LC/MS-MS analysis; assay type: ADME, organism-based; settings: in vivo
[30] = Cmax in human at 25 mg/kg, po administered as single dose; assay type: ADME, organism-based; set-up: dose 25 mg/kg, route po; settings: in vivo
[31] = Toxicity in mouse assessed as NOAEL; settings: in vivo
[32] = Oral bioavailability in Sprague-Dawley rat at 10 mg/kg administered as suspension measured upto 24 hrs by LC-MS/MS analysis; assay type: ADME, organism-based; settings: in vivo
[33] = Metabolic stability in human liver cytosol measured upto 60 mins by LC-MS/MS method; assay type: ADME, subcellular; settings: read-out: Stability
[34] = Effect on parathyroid hormone in overnight fasted Sprague-Dawley rat assessed as reduction in plasma PTH level at 10 mg/kg, po measured after 2 hrs of post treatment by sandwich ELISA analysis; assay type: functional; set-up: scale not given: the % may be the effect or the level left
[35] = Cmax in rat at 50 mg/kg per day, po via gavage administered for 2 weeks; assay type: ADME, organism-based; set-up: dose 50 mg/kg, time 2 weeks, route po; settings: in vivo
[36] = Drug excretion in BALB/c mouse assessed as drug recovery in feces at 1 mg/kg, iv; assay type: ADME, organism-based; settings: faeces, read-out: Drug recovery
[37] = Chemical stability of the compound at pH 4 measured after 0.5 to 4 hrs; assay type: physicochemical; settings: buffer, time 0.5-4 hrs
[38] = Kinetic solubility of compound in water upto 500 uM measured after 16 hrs under shaking condition by UV-visible method; assay type: physicochemical; settings: read-out: Kinetic_solubility

SMILES: Cc1ccc([C@@H]2C[C@H](CN[C@H](C)c3cccc4ccccc34)Oc3ccccc32)cc1C(=O)O.Cl
- Activity (Rattus norvegicus): 96%
- dose excreted [1]: 3%
- inhibition [2]: > 50%
- dose excreted [3]: < 1%
- half-life [4]: 5 h
- remaining at 1 h [5]: ~30%
- dose excreted [6]: 10%
- fraction unbound at 16 h [7]: < 0.01
- Cmax [8]: 11 µM
- solubility kinetic at 16 h, 500 µM [9]: > 200 µM
- bioavailability [10]: 100%
- inhibition at 10 µM (CYP2E1): 0%
- solubility kinetic at 16 h, 500 µM [11]: > 300 µM
- fraction unbound [12]: < 0.01
- Vd [13]: 0.7 L/kg
- CL/F [14]: 6 mL/min/kg
- Papp B→A at 5 µM [15]: 6.3 ×10⁻⁶ cm/s
- half-life [16]: 3 h
- fraction unbound at 16 h [17]: < 0.01
- inhibition [18]: > 50%
- AUC(0-t) [19]: 426 µM·h
- Cmax [20]: 0.4 µM
- Cmax [21]: 202 ng/mL
- inhibition at 10 µM (hERG [22]): 4%
- inhibition at 1 µM (CYP2D6): 4%
- inhibition at 1 µM (hERG [23]): 1%
- efflux ratio at 2 h, 5 µM [24]: 0.3
- Activity [25]: 18%
- bioavailability [26]: 99%
- AUC(0-t) [27]: 116 µM·h
- remaining at 0.5 h, 1 µM [28]: 77%
- half-life [29]: 4 h
- Cmax [30]: 367 ng/mL
- NOAEL [31]: 50 mg/kg/day
- bioavailability [32]: 33%
- remaining at 1 h [33]: > 80%
- Activity [34]: 99%
- Cmax [35]: 7170 ng/mL
- dose excreted [36]: 27%
- Stability [37]: Stable
- solubility kinetic at 16 h, 500 µM [38]: > 300 µM
